Here are results for one substance from patent publication US20100254940A1, “Compositions and Methods for Regulating an Immune Response in a Subject” (INNATE PHARMA, S.A., priority 2002, published 2010).

One series concerns IFNγ. As to the kind of experiment: Serum IFNγ by ELISA after BrHPP injection in cynomolgus monkeys. It counts as in vivo, cynomolgus monkeys (M. fascicularis). How it is done: (§1) Serum cytokines (TNFα and INFg) were detected and quantified with the BIOSOURCE Cytoscreen™ ELISA monkey TNFa and Cytoscreen™ ELISA monkey INFg respectively (purchased from CliniSciences, Montrouge, France) according to the manufacturer's instructions.
(§2) Samples of sera were collected from group 2 animals during the first dose range assay (0 to 80 mg/kg) just before injection then 1 and 4 hours post injection, and assayed by ELISA specific for TNFa and IFNg.
(§3) Phosphostim was administered i.v., as slow infusions (50 ml in 30 minutes), at various dose levels to five groups of two animals (one male+one female). Males received two successive injections of BrHPP (Day 0 and Day 22) before sacrifice and females four injections (Days 0, 22, 52 and 84). Two females, selected upon their level of response to the 4th treatment, received a supplementary injection of BrHPP alone at Day 91, during γδ cell peripheral increase, for systemic cytokine dosages.
For orientation: In an ELISA, binding on a coated surface is turned into a signal by an enzyme label.

A short description of series [1]: Two-phase repeated dose toxicity study in cynomolgus monkeys, i.v. BrHPP. The format is in vivo. How it is done:
The objective of the first phase of this non GLP study was to determine BrHPP Maximum Tolerated Dose (MTD) in a group of two cynomolgus monkeys (one male, one female) by escalating doses. The second objective of this study was to characterize the toxicity of daily i.v. administration of Phosphostim for two weeks in two cynomolgus monkeys (one male, one female) at the MTD determined during the first phase of the study. The animals were treated at increasing dose-levels every 3 or 4 days (phase 1) and then at the estimated Maximum Tolerated Dose (MTD) daily for 2 weeks (phase 2).
A total of four cynomolgus monkeys (two males and two females) were divided into 2 groups and treated with BrHPP, by intravenous administration over a 1-hour infusion period as follows:
Group 1 (one male and one female) were administered BrHPP and/or Phosphostim (BrHPP, 200 mg) i.v. at increasing dose-levels (160, 400, 600, 900 and 1200 mg/kg) every 3 or 4 days. Anionic form BrHPP equilvalent to these doses are respectively: 96, 240, 360, 540 and 720 mg/kg. BrHPP was given as a solution after reconstitution in water for injection finally diluted in Ringer lactate under a dose volume of 4, 10 or 15 mL/kg.
Group 2 (one male and one female) were administered BrHPP i.v. daily at 900 mg/kg/day (540 mg/kg/day in anionic form BrHPP equivalent) for 2 weeks.
The animals were checked daily for mortality and clinical signs. Body weight was recorded pre-study and on the day of each administration in phase 1 or twice weekly throughout phase 2, and including on the day of necropsy for phase 2. Food consumption was estimated daily, starting at least 7 days pre-phase. Hematological, blood biochemical and/or peripheral blood lymphocyte subset analysis investigations were performed pre-study, on the day of each administration in phase 1, on day 7 in phase 2 and at the end of both phases. Electrocardiographic and blood pressure recordings were performed pre-study, on the day of each administration in phase 1 and on day 1 and at the end of treatment in phase 2. Blood, for determination of plasma levels of the test item, was sampled on days 1 and 14 in phase 2. On completion of each phase, animals were submitted to a complete macroscopic post-mortem examination and specified tissues preserved. In phase 2, selected body organs were weighed and microscopic examination of selected tissues was performed for all animals.

A further series concerns TNFα. The experiment in a line: Serum TNFα by ELISA after BrHPP injection in cynomolgus monkeys. It counts as in vivo, cynomolgus monkeys (M. fascicularis). Here is the method:
as §1, §2
The objective of this GLP study was to explore further the pharmaco-dynamic properties of Phosphostim (BrHPP, 200 mg; GMP batch) alone and in combination with IL-2 following several i.v. administrations to cynomolgus monkeys. In particular, this study was planned to evaluate: • A dose-effect relationship between Phosphostim injection and γδ T cell peripheral amplification; • The pharmaco-dynamic effect of a second, third and up to fifth administration of Phosphostim in male and female animals; • The functionality of in vivo induced γδ T cells, by dosing systemic cytokines after Phosphostim treatment; • The effect of treatment with IL-2 alone and to validate the selected dose of 0.6 million IU/day/animal.
as §3

Series [2] is described as follows: Half life of the molecule in primate sera. The format is in vitro ADME. As to conditions: 37° C. Here is the method:
In vitro, we and others (Lang, 1995) have shown that the activation of Vg9Vd2 cells occurs within minutes after the addition of the molecule. Two mechanisms may prevent the molecule to be active in vivo i) the likely rapid renal clearance of such a small molecule and ii) a degradation process in vivo. […] Nevertheless, the concentration of the molecule, injected by intravenous route in relatively high amount, should be maintained beyond the 20 nM EC50 for a significant time, if no additional, blood cell or organ related degradation process occurs in vivo.

Setting [3] is: fifth injection 80 mg/kg without IL2 at peak after fourth injection.

Regarding “3-(bromomethyl)-3-butanol-1-yl-diphosphate [BrHPP]”, in the series on IFNγ (setting [3]), the “IFNg in the sera” value was “detectable at one hour post injection, and increased at 4 hours post injection”. Besides, the “Assessment of IFNγ” value in the series with IFNγ (first dose range assay 0 to 80 mg/kg, 1 and 4 hours post injection) is “Did not Give Significant Results”. In addition, the macroscopic post-mortem examination entry in series [1] (Phase 1 or Phase 2) is given as “No relevant findings”. Besides, the lymphocyte count entry in series [1] (Phase 2, 900 mg/kg/day 2 weeks) is given as “increased lymphocyte count was noted in both animals”. The clinical signs entry in series [1] (both treatment phases) is “no relevant clinical signs were noted”. In series [1] (either phase), the blood pressure entry was “did not affect blood pressure”, the body weight evolution result was “had no effect on the body weight evolution” and the food consumption result is on record as “unaffected”. The “hematological or blood chemistry changes” value in series [1] (phase 1, 160-1200 mg/kg) was “No treatment related hematological or blood chemistry changes”. Besides, the mortality result in series [1] (phase 1: 160-1200 mg/kg every 3 or 4 days, phase 2: 900 mg/kg/day 2 weeks) is “No unscheduled death occurred”. In series [1] (phase 2, female), the absolute thymus weight entry is “slightly lower absolute thymus weight”; the “microscopic findings, female” value was “Lymphoid depletion was seen in the thymus and mesenteric lymph node”. Further, the “microscopic findings, male” value in series [1] (phase 2, male) was “increase of follicular germinal center in the mesenteric lymph node”. Besides, the “serum level of TNFa” value in the series on TNFα (80 mg/kg, 4 hours post BrHPP injection) is listed as “not further detectable”. For the same substance, the “TNFα in the sera” value with TNFα (80 mg/kg, one hour after injection) is given as “detectable”. Besides, in the series on TNFα (fifth injection 80 mg/kg without IL2, 4 hours post injection), the TNFa level entry is “undetectable at 4 hours post injection”. Besides, the “TNFa in the sera” value in the series on TNFα (setting [3]) is “detectable”. Besides, in series [2], the “half life of the molecule in primate sera” value is “about one”.
